Where a SMILES comes first, the peptide text is derived from it.
Legend:
Langerhans's islets = assay: In vitro glucose stimulated insulin secretion from isolated Langerhans's islets; assay type: cell-based; conditions: for glucose stimulated insulin secretion, percentage of the effect of 10 mmolar glucose alone: hydrochloride, with 10 mM glucose, isolated islets preincubated 24 hours at 37° C
Experimental: In vitro determination of the effect or the peptides on the glucose stimulated insulin secretion was carried out on Langerhans's islets isolated by collagenase technique and preincubated 24 hours at 37° C. Secretion tests were conducted with 10 mM of glucose and three peptide concentrations.
All peptides have been tested in the form of their hydrochlorides together with 10 mmolar glucose, and the value is calculated as a percentage of the effect of 10 mmolar glucose alone.

[1] = pharmacological dosages; cited from earlier work

| Compound | effect on insulin liberation from isolated Langerhans's islets (in words) (Langerhans's islets; same in vitro conditions as for the present peptides) | blood sugar level [1] | secretion of insulin [1] | glucose stimulated insulin secretion, percentage of the effect of 10 mmolar glucose alone (Langerhans's islets; peptide 5mM) | glucose stimulated insulin secretion, percentage of the effect of 10 mmolar glucose alone (Langerhans's islets; peptide 5 × 10^-1 mM) | glucose stimulated insulin secretion, percentage of the effect of 10 mmolar glucose alone (Langerhans's islets; peptide 5 × 10^-2 mM) |
| --- | --- | --- | --- | --- | --- | --- |
| secretin | not been possible to make secretin affect the insulin liberation | without affecting the blood sugar level | potentiate the secretion of insulin | – | – | – |
| COC(=O)[C@H](CC(C)C)NC(=O)[C@H](CCCNC(=N)N)NC(=O)[C@H](CCC(N)=O)NC(=O)[C@@H](N)CC(C)C [Peptide 3, leuglnargleuOMe, 2HCl] (H-LQRL-OMe) | – | – | – | 240% | 127% | 124% |
| COC(=O)[C@H](CC(C)C)NC(=O)[C@H](CCCNC(=N)N)NC(=O)[C@@H](N)CCC(N)=O [Peptide 1, glnargleuOMe, 2HCl] (H-Gln-Arg-Leu-OMe) | – | – | – | 151% | 113% | 144% |
| COC(=O)[C@H](CC(C)C)NC(=O)[C@H](CCCNC(=N)N)NC(=O)[C@H](CCC(N)=O)NC(=O)[C@H](CC(C)C)NC(=O)[C@H](CCCNC(=N)N)NC(=O)[C@H](C)NC(=O)[C@H](CO)NC(=O)[C@@H](N)CC(=O)O [Peptide 6, aspseralaargleuglnargleuOMe, 3HCl] (H-DSARLQRL-OMe) | – | – | – | 142% | 110% | – |
| COC(=O)[C@H](CC(C)C)NC(=O)[C@H](CCCNC(=N)N)NC(=O)[C@H](CCC(N)=O)NC(=O)[C@H](CC(C)C)NC(=O)[C@H](CCCNC(=N)N)NC(=O)[C@H](C)NC(=O)[C@@H](N)CO [Peptide 5, seralaargleuglnargleuOMe, 3HCl] (H-SARLQRL-OMe) | – | – | – | 268% | 140% | – |
| COC(=O)[C@H](CC(C)C)NC(=O)[C@H](CCCNC(=N)N)NC(=O)[C@H](CCC(N)=O)NC(=O)[C@H](CC(C)C)NC(=O)[C@@H](N)CCCNC(=N)N [Peptide 4, argleuglnargleuOMe, 3HCl] (H-RLQRL-OMe) | – | – | – | 153% | 120% | 135% |

From patent publication US4265884A, “Therapeutically active polypeptides or acid addition salts thereof and a process for producing such compounds” (Nordisk Insulinlaboratorium, priority 1978, dated 1981)
